Data: ChEMBL document CHEMBL1201862, “PubChem BioAssay data set” (2004)
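Protocol summary: plate cells (96-well), add compound at 5 concentrations, incubate 48 h, interpolate endpoints linearly. GI50 marks 50% less growth.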 Calls of active or inactive are those of the source. Cut-off read from the data, not from the text of the source: active = GI50 up to about 1.1 µM and inactive = higher.

Columns and labels:
Experiment in all cases: NCI tumour cell line growth inhibition, 48 h
[1] = test system: UACC-257
[2] = test system: KM12
[3] = test system: LXFL 529
[4] = test system: SF-539
[5] = test system: KM-20L2
[6] = test system: MOLT-4
[7] = test system: DMS-273
[8] = test system: OVCAR-3
[9] = test system: NCI-H226
[10] = test system: SK-MEL-5
[11] = test system: XF498
[12] = test system: HCT-15
[13] = test system: LOX IMVI
[14] = test system: SNB-19
[15] = test system: EKVX
[16] = test system: SK-OV-3
[17] = test system: UACC-62
[18] = test system: M14
[19] = test system: HT-29
[20] = test system: SF-295
[21] = test system: DLD-1
[22] = test system: HOP-18
[23] = test system: SN12C
[24] = test system: OVCAR-5
[25] = test system: TK-10
[26] = test system: SNB-75
[27] = test system: M19-MEL
[28] = test system: K562
[29] = test system: COLO 205
[30] = test system: OVCAR-4
[31] = test system: SW-620
[32] = test system: DMS-114
[33] = test system: U-251
[34] = test system: RPMI-8226
[35] = test system: A498
[36] = test system: RXF 631
[37] = test system: HOP-92
[38] = test system: 786-0
[39] = test system: NCI-H23
[40] = test system: SF-268
[41] = test system: SNB-78
[42] = test system: SK-MEL-28
[43] = test system: NCI-H522
[44] = test system: IGROV-1
[45] = test system: ACHN
[46] = test system: HCT-116
[47] = test system: Malme-3M
[48] = test system: HCC 2998
[49] = test system: SK-MEL-2
[50] = test system: SR
[51] = test system: A549
[52] = test system: HL-60
[53] = test system: HOP-62
[54] = test system: NCI-H460
[55] = test system: CAKI-1
[56] = test system: OVCAR-8
[57] = test system: RXF 393
[58] = test system: UO-31
[59] = test system: CCRF-CEM
[60] = test system: MDA-MB-231
[61] = test system: Hs-578T
[62] = test system: MDA-MB-435
[63] = test system: DU-145
[64] = test system: T47D
[65] = test system: NCI/ADR-RES
[66] = test system: MDA-N
[67] = test system: BT-549
[68] = test system: PC-3
[69] = test system: MCF7

Structure (SMILES): CCC(CO)COC(=O)/C=C/C(=O)OCC(CC)CO (configuration not stated)
- GI50 [1]: > 100 µM (inactive)
- GI50 [2]: > 100 µM (inactive)
- GI50 [3]: 78.7 µM (inactive)
- GI50 [4]: > 100 µM (inactive)
- GI50 [5]: > 100 µM (inactive)
- GI50 [6]: 45.1 µM (inactive)
- GI50 [7]: > 100 µM (inactive)
- GI50 [8]: > 62.5 µM (inactive)
- GI50 [9]: > 100 µM (inactive)
- GI50 [10]: > 100 µM (inactive)
- GI50 [11]: > 100 µM (inactive)
- GI50 [12]: > 73.3 µM
- GI50 [13]: > 100 µM (inactive)
- GI50 [14]: > 100 µM (inactive)
- GI50 [15]: > 55.5 µM (inactive)
- GI50 [16]: > 100 µM (inactive)
- GI50 [17]: > 72.4 µM (inactive)
- GI50 [18]: > 71.8 µM (inactive)
- GI50 [19]: > 91 µM (inactive)
- GI50 [20]: > 100 µM (inactive)
- GI50 [21]: > 85.9 µM (inactive)
- GI50 [22]: > 100 µM (inactive)
- GI50 [23]: > 100 µM (inactive)
- GI50 [24]: > 100 µM (inactive)
- GI50 [25]: > 100 µM (inactive)
- GI50 [26]: 73.5 µM (inactive)
- GI50 [27]: > 100 µM (inactive)
- GI50 [28]: 48.6 µM (inactive)
- GI50 [29]: > 100 µM (inactive)
- GI50 [30]: > 100 µM (inactive)
- GI50 [31]: > 89.1 µM (inactive)
- GI50 [32]: > 100 µM (inactive)
- GI50 [33]: > 100 µM (inactive)
- GI50 [34]: 33.3 µM (inactive)
- GI50 [35]: > 100 µM (inactive)
- GI50 [36]: > 100 µM (inactive)
- GI50 [37]: > 81.8 µM (inactive)
- GI50 [38]: > 100 µM (inactive)
- GI50 [39]: > 84.7 µM (inactive)
- GI50 [40]: > 84.3 µM (inactive)
- GI50 [41]: > 100 µM (inactive)
- GI50 [42]: > 100 µM (inactive)
- GI50 [43]: > 61.5 µM (inactive)
- GI50 [44]: > 100 µM (inactive)
- GI50 [45]: > 100 µM (inactive)
- GI50 [46]: > 74.3 µM (inactive)
- GI50 [47]: > 61 µM (inactive)
- GI50 [48]: > 100 µM (inactive)
- GI50 [49]: > 100 µM (inactive)
- GI50 [50]: 30.9 µM (inactive)
- GI50 [51]: > 100 µM (inactive)
- GI50 [52]: 22.1 µM (inactive)
- GI50 [53]: > 100 µM (inactive)
- GI50 [54]: > 100 µM (inactive)
- GI50 [55]: > 100 µM (inactive)
- GI50 [56]: > 76.2 µM (inactive)
- GI50 [57]: > 65.3 µM (inactive)
- GI50 [58]: > 100 µM (inactive)
- GI50 [59]: 27.4 µM (inactive)

Structure (SMILES): COc1ccc(/C=C\c2cc(OC)c(OC)c(OC)c2)cc1OC
- GI50 [1]: 0.136 µM (active)
- GI50 [2]: 0.0957 µM (active)
- GI50 [3]: 0.186 µM (active)
- GI50 [4]: 0.113 µM (active)
- GI50 [5]: 0.0771 µM (active)
- GI50 [6]: 0.194 µM (active)
- GI50 [7]: 0.0207 µM (active)
- GI50 [8]: 0.0916 µM (active)
- GI50 [9]: 0.056 µM (active)
- GI50 [10]: 0.207 µM (active)
- GI50 [11]: 0.122 µM (active)
- GI50 [12]: 0.113 µM
- GI50 [60]: 0.472 µM (active)
- GI50 [61]: 0.0604 µM (active)
- GI50 [13]: 0.32 µM (active)
- GI50 [14]: 0.153 µM (active)
- GI50 [15]: 0.188 µM (active)
- GI50 [16]: 0.114 µM (active)
- GI50 [17]: 0.197 µM (active)
- GI50 [18]: 0.139 µM (active)
- GI50 [19]: 0.124 µM (active)
- GI50 [20]: 0.108 µM (active)
- GI50 [21]: 0.173 µM (active)
- GI50 [62]: 0.0184 µM (active)
- GI50 [22]: 0.411 µM (active)
- GI50 [63]: 0.286 µM (active)
- GI50 [23]: 0.216 µM (active)
- GI50 [24]: 12.2 µM (inactive)
- GI50 [25]: 0.186 µM (active)
- GI50 [26]: 0.098 µM (active)
- GI50 [28]: 0.12 µM (active)
- GI50 [29]: 0.0767 µM (active)
- GI50 [30]: 15.8 µM (inactive)
- GI50 [31]: 0.149 µM (active)
- GI50 [32]: 0.105 µM (active)
- GI50 [33]: 0.117 µM (active)
- GI50 [34]: 0.162 µM (active)
- GI50 [35]: 0.236 µM (active)
- GI50 [36]: 0.195 µM (active)
- GI50 [37]: 9.66 µM (inactive)
- GI50 [38]: 0.198 µM (active)
- GI50 [64]: 22.2 µM (inactive)
- GI50 [39]: 0.216 µM (active)
- GI50 [40]: 0.298 µM (active)
- GI50 [41]: 0.0171 µM (active)
- GI50 [42]: 0.143 µM (active)
- GI50 [43]: 0.0349 µM (active)
- GI50 [44]: 0.278 µM (active)
- GI50 [45]: 0.348 µM (active)
- GI50 [46]: 0.135 µM (active)
- GI50 [47]: 0.0746 µM (active)
- GI50 [48]: 0.134 µM (active)
- GI50 [49]: 0.0641 µM (active)
- GI50 [65]: 0.222 µM (active)
- GI50 [50]: 0.0649 µM (active)
- GI50 [66]: 0.0165 µM (active)
- GI50 [51]: 0.239 µM (active)
- GI50 [52]: 0.0912 µM (active)
- GI50 [67]: 0.912 µM (active)
- GI50 [53]: 0.128 µM (active)
- GI50 [54]: 0.142 µM (active)
- GI50 [55]: 0.156 µM (active)
- GI50 [56]: 0.153 µM (active)
- GI50 [68]: 0.112 µM (active)
- GI50 [57]: 0.121 µM (active)
- GI50 [58]: 2.21 µM (inactive)
- GI50 [59]: 0.13 µM (active)
- GI50 [69]: 0.0968 µM (active)

Structure (SMILES): Cc1cc2c(C)nn(Cc3ccc(Cl)cc3)c2c(C#N)c1C
- GI50 [1]: > 100 µM (inactive)
- GI50 [3]: > 100 µM (inactive)
- GI50 [4]: > 100 µM (inactive)
- GI50 [5]: > 100 µM (inactive)
- GI50 [6]: > 10 µM (inactive)
- GI50 [7]: > 100 µM (inactive)
- GI50 [8]: > 100 µM (inactive)
- GI50 [9]: > 100 µM (inactive)
- GI50 [11]: 39.1 µM (inactive)
- GI50 [12]: > 100 µM
- GI50 [14]: 63.5 µM (inactive)
- GI50 [15]: > 100 µM (inactive)
- GI50 [16]: > 100 µM (inactive)
- GI50 [17]: > 100 µM (inactive)
- GI50 [20]: 46.2 µM (inactive)
- GI50 [22]: > 100 µM (inactive)
- GI50 [23]: > 100 µM (inactive)
- GI50 [24]: > 100 µM (inactive)
- GI50 [25]: > 100 µM (inactive)
- GI50 [27]: > 100 µM (inactive)
- GI50 [29]: > 100 µM (inactive)
- GI50 [31]: > 100 µM (inactive)
- GI50 [33]: > 100 µM (inactive)
- GI50 [34]: > 100 µM (inactive)
- GI50 [36]: > 100 µM (inactive)
- GI50 [37]: 35.6 µM (inactive)
- GI50 [38]: 63.2 µM (inactive)
- GI50 [39]: > 100 µM (inactive)
- GI50 [40]: > 100 µM (inactive)
- GI50 [41]: > 100 µM (inactive)
- GI50 [42]: > 100 µM (inactive)
- GI50 [44]: > 100 µM (inactive)
- GI50 [45]: > 100 µM (inactive)
- GI50 [46]: > 100 µM (inactive)
- GI50 [47]: > 100 µM (inactive)
- GI50 [48]: > 100 µM (inactive)
- GI50 [49]: > 100 µM (inactive)
- GI50 [50]: > 100 µM (inactive)
- GI50 [51]: > 100 µM (inactive)
- GI50 [52]: > 100 µM (inactive)
- GI50 [53]: > 100 µM (inactive)
- GI50 [56]: > 100 µM (inactive)
- GI50 [57]: 45.9 µM (inactive)
- GI50 [58]: > 100 µM (inactive)
- GI50 [59]: > 100 µM (inactive)
